The subject of experiment [1] is glucocorticoid receptor. Description: Glucocorticoid receptor levels in PBMCs of rats after four days of intravenous dosing, immunoblot. It counts as in vivo, Sprague-Dawley (SD) rats. As to conditions: daily intravenously for four days, 17-DMAG 6 mg/kg, Paclitaxel 5 mg/kg, Compound 264 80 mg/kg, Compound 226 50 mg/kg. On the procedure:
The test compounds were administered daily intravenously via tail vein for four days. […] All rats were sacrificed at the study day 5. About 1-2 mL of blood samples were collected per animal. The blood samples were then pulled together as a group for PBMC isolation.

The test system of experiment [2] is glucocorticoid receptor. The experiment can be described thus: Glucocorticoid receptor levels in rat PBMCs, immunoblot. The format is cell-based. As to conditions: rat PBMCs, 0, 1, 5, 25, or 100 nM, 16 hours. On the procedure: (§1) The whole blood samples from healthy human volunteer and male SD rat were collected and the PBMCs were isolated immediately as follows. 5 ml of whole blood was diluted with an equal volume of sterile 1× PBS. The diluted blood was overlayed carefully into a sterile centrifuge tube without disturbing the bottom layer that containing 5 ml of Ficoll-paque plus density gradient solution. The layered blood was centrifuged at 1500×g for 30 minutes at room temperature. The middle thin layer containing PBMCs was carefully removed, transferred to another sterile centrifuge tube, and washed twice with PBS to remove […]. Isolated rat and human PBMCs were cultured in 10% fetal bovine serum/DMEM.
(§2) The rat and human PBMCs were treated with DMSO (control), Compound 226, Compound 287, or 17-DMAG at concentrations of 0, 1, 5, 25, or 100 nM (in DMSO) for 16 hours. The cells were then collected and rinsed in ice-cold PBS and stored in liquid nitrogen until further analysis.
(§3) PBMC were prepared in Western lysis buffer (10 mmol/L HEPES, 42 mmol/L KCl, 5 mmol/L MgCl2, 0.1 mmol/L EDTA, 0.1 mmol/L EGTA, 1 mmol/L DTT, 1% Triton X-100, freshly supplemented with 1× protease inhibitor cocktail from Pierce, Rockford, Ill.). Lysate protein concentrations were quantified by bicinchoninic acid assay (Pierce) and normalized. Equal amounts of protein were loaded onto 10% NuPAGE Bis-Tris Gels (Invitrogen) and subsequently transferred onto polyvinylidene difluoride membranes. The membranes were blocked in 5% milk in TBST. Primary antibody of glucocorticod receptor from Santa Cruz Biotechnology, Inc. was added and incubated at room temperature for 1 hour with shaking. The blots were washed extensively in TBST before secondary antibodies were added for overnight incubation at 4° C. with gentle shaking. The blots were again washed extensively and developed with SuperSignal West Femto substrate (Pierce). The immunoblot analysis was performed to measure the level of total GRs by Quantity One software from Bio-Rad.

The subject of experiment [3] is glucocorticoid receptor. The experiment can be described thus: Glucocorticoid receptor levels in human PBMCs, renal cells and cancer cell lines, immunoblot (Example 115). The format is cell-based. On the procedure: Normal human renal proximal tubule epithelial cells and tumor cell lines of MV-4-11, Kasumi-1, and Hela were obtained from Cambrex Bioproducts and American Type Culture Collection, respectively. Cells were cultured with 10% fetal bovine serum/DMEM.
The whole blood samples from healthy human volunteer were collected and the PBMCs were isolated immediately as described in Example 116. Isolated human PBMCs were cultured in 10% fetal bovine serum/DMEM.
Human PBMCs, kasumi-1, My-4-11, Hela, and human renal proximal tubule epithelial cells were treated with DMSO (control), Compound 226, Compound 287, 17-DMAG at concentrations of 0, 5, 25, or 100 nM (in DMSO) for 16 hours. The cells were then collected and rinsed in ice-cold PBS and stored in liquid nitrogen until further analysis.
as §3, with “PBMC, renal and tumor cell pellets” for “PBMC”, “0.1. mmol/LEGTA,” for “0.1 mmol/L EGTA,”, “glucocorticoid” for “glucocorticod”, “(Pierce).” for “(Pierce). The immunoblot analysis was performed to measure the level of total GRs by Quantity One software from Bio-Rad.”
Background: Immunoblotting shows a protein as a band on a membrane.

For experiment [4], the system named is glucocorticoid receptor. Description: Glucocorticoid receptor levels in human PBMCs, immunoblot (Example 114). The format is cell-based. The settings on record: human PBMCs, 0, 1, 5, 25, or 100 nM, 16 hours. On the procedure:
as §1, §2, §3

Experiment [5] concerns Her2. The experiment can be described thus: Degradation of Her2 in BT-474 cells, immunoblot (Method 1). The settings on record: overnight. The format is cell-based, Human. On the procedure: Human high-Her2 breast carcinoma BT474 (HTB-20), SK-BR-3 (HTB-30) and MCF-7 breast carcinoma (HTB-22) from American Type Culture Collection, VA, USA were grown in Dulbecco's modified Eagle's medium with 4 mM L-glutamine and antibiotics (100 IU/ml penicillin and 100 ug/ml streptomycine; GibcoBRL). To obtain exponential cell growth, cells were trypsinized, counted and seeded at a cell density of 0.5×10^6 cells/ml regularly, every 3 days. All experiments were performed on day 1 after cell passage. • B. Degradation of Her2 in Cells After Treatment with a Compound of the Invention • 1. Method 1
BT-474 cells were treated with 0.5 μM, 2 μM, or 5 μM of 17AAG (a positive control) or 0.5 μM, 2 μM, or 5 μM of Compound 108 or Compound 49 overnight in DMEM medium. After treatment, each cytoplasmic sample was prepared from 1×10^6 cells by incubation of cell lysis buffer (#9803, cell Signaling Technology) on ice for 10 minutes. The resulting supernatant used as the cytosol fractions were dissolved with sample buffer for SDS-PAGE and run on a SDS-PAGE gel, blotted onto a nitrocellulose membrane by using semi-dry transfer. Non-specific binding to nitrocellulose was blocked with 5% skim milk in TBS with 0.5% Tween at room temperature for 1 hour, then probed with anti-Her2/ErB2 mAb (rabbit IgG, #2242, Cell Signaling) and anti-Tubulin (T9026, Sigma) as housekeeping control protein. HRP-conjugated goat anti-rabbit IgG (H+L) and HRP-conjugated horse anti-mouse IgG (H+L) were used as secondary Ab (#7074, #7076, Cell Signaling) and LumiGLO reagent, 20× Peroxide (#7003, Cell Signaling) was used for visualization.

The target in experiment [6] is T1, glucocorticoid receptors (Homo sapiens, UniProt P04150).
T1 construct: endogenous in cells; host or cells: HeLa S3
T1 sequence (P04150 1-777): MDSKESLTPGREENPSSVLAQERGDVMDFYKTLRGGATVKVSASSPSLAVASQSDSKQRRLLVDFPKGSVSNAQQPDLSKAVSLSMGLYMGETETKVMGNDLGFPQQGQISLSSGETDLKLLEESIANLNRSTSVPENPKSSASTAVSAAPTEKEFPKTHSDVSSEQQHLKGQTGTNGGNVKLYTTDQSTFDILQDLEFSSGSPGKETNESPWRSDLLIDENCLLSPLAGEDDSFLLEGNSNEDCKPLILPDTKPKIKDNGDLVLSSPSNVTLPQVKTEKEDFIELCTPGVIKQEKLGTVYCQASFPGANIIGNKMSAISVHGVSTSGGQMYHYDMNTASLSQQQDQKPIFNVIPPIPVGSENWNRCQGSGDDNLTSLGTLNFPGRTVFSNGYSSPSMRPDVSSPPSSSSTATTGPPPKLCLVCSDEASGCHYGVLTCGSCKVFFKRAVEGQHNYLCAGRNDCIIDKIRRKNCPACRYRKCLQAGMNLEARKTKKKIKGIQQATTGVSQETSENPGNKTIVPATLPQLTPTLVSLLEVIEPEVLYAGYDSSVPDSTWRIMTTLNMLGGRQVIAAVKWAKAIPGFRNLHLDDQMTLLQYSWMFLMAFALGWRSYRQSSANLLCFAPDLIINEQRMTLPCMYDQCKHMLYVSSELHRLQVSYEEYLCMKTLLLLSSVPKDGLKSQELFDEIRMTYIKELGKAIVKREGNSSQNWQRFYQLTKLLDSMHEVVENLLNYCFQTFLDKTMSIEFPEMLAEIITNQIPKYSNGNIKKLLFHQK
Description: Competitive binding assay with tritium labeled dexamethason in Hela S3 cells (legend of FIG. 3).

Experiment [7] deals with Hsp90 protein. Description: Malachite Green Assay of ATPase activity of Hsp90 protein. It counts as biochemical. On the procedure:
Hsp90 protein was obtained from Stressgen (Cat #SPP-770). Assay buffer: 100 mM Tris-HCl, Ph 7.4, 20 mM KCl, 6 mM MgCl2. […] Malachite green reagent was added to the reaction. […] The plate was read by an ELISA reader with an absorbance at 620 nm.

[8] abbreviates: Kasumi-1 AML cancer cells, 0, 5, 25, or 100 nM, 16 hrs.
Setting [9] is: MV-4-11 AML cancer cells, 0, 5, 25, or 100 nM, 16 hrs.
The mark [10] stands for this setting: cancer cells as well as normal PBMCs and renal cells.
Setting [11] is: human PBMCs, 0, 5, 25, or 100 nM, 16 hrs.
The mark [12] stands for this setting: human renal cells, 0, 5, 25, or 100 nM, 16 hrs.

Each structure is given as a SMILES string. Entries after “also recorded” stand apart in the source; their conditions may differ.

Turning to `CO[C@H]1/C=C\C=C(/C)C(=O)NC2=CC(=O)C(NCCN(C)C)=C(C[C@@H](C)C[C@H](OC)[C@H](O)[C@@H](C)/C=C(\C)[C@@H]1OC(N)=O)C2=O` [Compound 17-DMAG, 17-DMAG, reference compound], the “expression of glucocorticoid receptor (GR) in isolated PBMC compared with vehicle” value in experiment [1] is “decreased”. Also, the “expression of glucocorticoid receptors” value in experiment [2] is recorded as “dose dependent decrease; also recorded: decreased the expression of glucocorticoid receptor in a dose dependent manner”; in experiment [3] (HeLa cells, 0, 5, 25, or 100 nM, 16 hrs), “dose dependent decrease”; in experiment [3] (setting [8]), “dose dependent decrease”; in experiment [3] (setting [9]) it was “dose dependent decrease”; in experiment [3] (setting [10]) it was “suppress the expression of glucocorticoid receptors”; in experiment [3] (setting [11]), “dose dependent decrease”. The “expression of glucocorticoid receptors” value is “dose dependent decrease” in experiment [3] (setting [12]) and “dose dependent decrease; also recorded: decreased the expression of glucocorticoid receptor in a dose dependent manner” in experiment [4]. In experiment [3], the “suppression of glucocorticoid receptors, cancer cells compared with normal cells” value is reported as “more pronounced in cancer cell than in normal cells”.

As for `CCc1cc(-c2nnc(S)n2-c2cccc3ccccc23)c(O)cc1O` [Compound 49, 3-(2,4-Dihydroxy-5-ethyl-phenyl)-4-(naphthalen-1-yl)-5-mercapto-triazole], the “degradation of Her2” value in experiment [5] (0.5 μM) is recorded as “partial degradated”; in experiment [5] (2 μM) it was “complete degradation”; in experiment [5] (5 μM), “complete degradation”.

With `CC(C)c1cc(-c2nnc(O)n2-c2ccc(N(C)CCN(C)C)cc2)c(O)cc1O` [Compound 287], the “expression of glucocorticoid receptors” value in experiment [2] was “dose dependent decrease; also recorded: decreased the expression of glucocorticoid receptor in a dose dependent manner”; in experiment [3] (setting [8]), “dose dependent decrease”; in experiment [3] (setting [9]), “dose dependent decrease”; in experiment [3] (setting [10]), “suppress the expression of glucocorticoid receptors”; in experiment [3] (setting [11]), “dose dependent decrease”; in experiment [3] (setting [12]), “dose dependent decrease”. In addition, the “expression of glucocorticoid receptors” value in experiment [4] is recorded as “dose dependent decrease; also recorded: decreased the expression of glucocorticoid receptor in a dose dependent manner”. Also, the “suppression of glucocorticoid receptors, cancer cells compared with normal cells” value in experiment [3] was “more pronounced in cancer cell than in normal cells”.

On to `CC(=O)O[C@H]1C(=O)[C@@]2(C)[C@H]([C@H](OC(=O)c3ccccc3)[C@]3(O)C[C@H](OC(=O)[C@H](O)[C@@H](NC(=O)c4ccccc4)c4ccccc4)C(C)=C1C3(C)C)[C@]1(OC(C)=O)CO[C@@H]1C[C@@H]2O` [Paclitaxel, reference compound], for which the “expression of glucocorticoid receptor (GR) in isolated PBMC compared with vehicle” value in experiment [1] is “decreased”. Moreover, the “displacement of tritium labeled dexamethason” value in experiment [6] is listed as “did not displace the tritium labeled dexamethason”.

As to `C[C@@H]1C[C@H]2O[C@@H]2/C=C\C=C\C(=O)Cc2c(Cl)c(O)cc(O)c2C(=O)O1` [radicicol], in experiment [6], the “displacement of tritium labeled dexamethason” value is “did not displace the tritium labeled dexamethason”.

Turning to `Oc1ccc(-c2nnc(S)n2-c2cccc3ccccc23)c(O)c1` [Compound 108, 3-(2,4-Dihydroxy-phenyl)-4-(naphthalen-1-yl)-5-mercapto-triazole], the “ATPase activity of Hsp90” value is “significant inhibition” in experiment [7] (4 μM) and “even greater inhibition of ATPase activity of Hsp90 than geldanamycin” in experiment [7] (40 μM). For the same molecule, the “degradation of Her2” value in experiment [5] (0.5 μM) is “partially degradated”; in experiment [5] (2 μM) it was “partially degradated”; in experiment [5] (5 μM), “almost completely degraded”.

These data come from patent publication US20170320837A1, “METHOD FOR TREATING INFLAMMATORY DISORDERS” (Synta Pharmaceuticals Corp., priority 2006, published 2017).
